The term EC50 denotes the concentration needed to bring the measured effect to its halfway point.

For series [1], the system named is cancers identified herein. The series is described as follows: Administration to patients having cancers (Example 5). Format: in vivo, human. Particulars: Example 5, written in present tense.
Series [2] relates to human glioma cell line LN-229. The series can be described thus: Cytotoxicity assay (crystal violet) in LN-229 cells. The format is cell-based. Conditions: 24 h, high values correspond to high cell viability. On the procedure:
Cell lines: The human glioma cell line LN-229 was used as described previously (Rodak et al. 2005) as well as the human colon adenocarcinoma cell line SW480.
Cytotoxicity assay: Dissociated LN-229 cells were seeded into 96-well plates at a density of 10^4 cells per well in 100 μl of culture medium. Approximately 24 h later, when the cells had reached 70-80% confluency, the medium was changed and treatment with compound #2250 (4.0-1000 μg/ml), taurolidine (4.0-1000 μg/ml) or standard medium was started. Triplicate cultures were prepared for each sample. After 24 h of incubation at […], the remaining adherent viable cells were stained using crystal violet as described (Rodack et al. 2005). Cell viability was determined by measuring the absorbancy at 540 nm. The results are expressed as killing rate given by the difference between 100% of cells and percentage of cells surviving. EC50 values correspond to the concentration inducing 50% cell death.

Series [3] concerns human glioma cell line LN-229. Described as above. The format is cell-based.
Series [4] relates to murine SMA 560 bulk glioma cells. The series is described as follows: Cytotoxicity assay in murine SMA 560 bulk glioma cells. Format: cell-based, mouse. On the procedure:
(§1) Tissue samples from high grade gliomas WHO grade IV from newly diagnosed patients (medium age of 54±10 years) were minced mechanically, digested enzymatically and the dissociated cells were filtered. The isolated tumor cells were cultured as bulk cells. Cancer Stem Cells (CSCs) were isolated by the formation of neurospheres under neurosphere conditions (using neurobasal medium) from the murine SMA 560 glioma cell line or from freshly isolated human glioblastoma cells.
Bulk glioma tumor cells were cultured and incubated with taurolidine or taurultam for 24h or 48h as described previously (Rodak et al., J. Neurosurg. 102, 1055-1068, 2005). CSCs were cultured for 7 days and subsequently exposed to taurolidine, taurultam or temozolamide for 24 hours. The number of remaining adherent cells were stained (crystal violet or Alamar Blue) and quantified by absorbance measurements (540 nm). Cell survival was expressed as the percentage of cells surviving relative to the number of cells surviving in untreated control cultures. […]
The mouse SMA560 glioma cell line was used to provide tumor bulk cells and CSCs. Following incubation of SMA560 bulk cells with various concentrations of taurolidine and taurultam (6.25, 12.5, 25, 50, 100, 200 μg/ml), cytotoxicity was determined after 24 h and 48 h of incubation.

The test system of series [5] is murine SMA560 glioma cancer stem cells (CSC). The series is described as follows: Cytotoxicity assay in murine SMA560 glioma cancer stem cells. Format: cell-based, mouse. Particulars: for sensitivity of CSCs relative to corresponding glioma bulk cells, based on EC50: murine SMA 560 CSCs vs bulk cells. On the procedure:
as §1
(§2) Bulk glioma tumor cells were cultured and incubated with taurolidine or taurultam for 24h or 48h as described previously (Rodak et al., J. Neurosurg. 102, 1055-1068, 2005). CSCs were cultured for 7 days and subsequently exposed to taurolidine, taurultam or temozolamide for 24 hours. The number of remaining adherent cells were stained (crystal violet or Alamar Blue) and quantified by absorbance measurements (540 nm). Cell survival was expressed as the percentage of cells surviving relative to the number of cells surviving in untreated control cultures. The results are given as % killing rate or EC50 as the dose required for half-maximal cytotoxicity.
Mouse CSCs were generated from the SMA560 glioma cell line and cultured for 7 days. The CSCs were treated with the same concentration of taurolidine and taurultam as above and cytotoxicity was determined after 24 hours.

Series [6] has as its system human glioblastoma bulk cells. Particulars: cited from earlier work.
The conditions of series [7]: measured in patients; cited from earlier work.
The subject of series [8] is cancer stem cells (CSC) derived from four glioblastoma patients. Format: cell-based, human. On the procedure:
as §1, §2
CSCs were isolated from glioblastoma tissue resected from four patients. The same range of concentrations of taurolidine and taurultam was applied as above and the cytotoxicity was measured after 24 hours of incubation with drug. […]

In brackets after ≈: the same amount, converted by molar mass.

Consider `O=S1(=O)CCNCO1` [A1], for which the “efficacy in treating cancers in patients” value in series [1] is “effective in treating such cancers”.

Take `O=S1(=O)CCOCO1` [A3]: the “efficacy in treating cancers in patients” value in series [1] is reported as “effective in treating such cancers”.

With `O=S1(=O)CCN(CN2COCCS2(=O)=O)CN1` [B1], in series [1], the “efficacy in treating cancers in patients” value is “effective in treating such cancers”.

For `O=S1(=O)CCN(CN2CCS(=O)(=O)OC2)CN1` [B2], the “efficacy in treating cancers in patients” value in series [1] is “effective in treating such cancers”.

`O=S1(=O)CCN(CN2CCS(=O)(=O)OC2)CO1` [B3]: in series [1], the “efficacy in treating cancers in patients” value is “effective in treating such cancers”.

`O=S1(=O)CCOCN1CN1COCCS1(=O)=O` [Compound 2245]: the “efficacy in treating cancers in patients” value in series [1] is listed as “effective in treating such cancers”.

As for `O=S1(=O)CCOCN1` [Compound 2250, Tetrahydro1,4,5-oxathiazin-4-dioxid], the “OD (absorbance at 540 nm)” value is 1.477 in series [2] (4 μg/ml); 1.527 in series [2] (8 μg/ml); 1.482 in series [2] (15.5 μg/ml); 1.482 in series [2] (31 μg/ml); 0.372 in series [2] (62.5 μg/ml); 0.199 in series [2] (125 μg/ml). The “OD (absorbance at 540 nm)” value was 0.120 in series [2] (250 μg/ml), 0.141 in series [2] (500 μg/ml) and 0.189 in series [2] (1000 μg/ml). Besides, the “efficacy in treating cancers in patients” value in series [1] is reported as “effective in treating such cancers”. The “effect on tumor cell morphology” value in series [3] is listed as “causes blebbing of tumor cells”.

`CN1COCCS1(=O)=O` [Compound 2255]: the “efficacy in treating cancers in patients” value in series [1] is “effective in treating such cancers”.

For the compound `O=S1(=O)CCN(CN2CCS(=O)(=O)NC2)CN1` [Taurolidine, taurolidine], a half-maximal response in series [4] (Mus musculus, SMA 560 bulk cells, no major difference between 24 h and 48 h) (EC50) required 34.6 µg/mL (≈ 122 µM). Further, in series [5], the “sensitivity of CSCs relative to corresponding glioma bulk cells, based on EC50” value is “about 3 fold”. In addition, the EC50 cytotoxicity in series [6] was around 50 µg/mL (≈ 176 µM). For the same compound, the “OD (absorbance at 540 nm)” value in series [2] (4 μg/ml) is reported as 1.530; in series [2] (8 μg/ml), 1.478; in series [2] (15.5 μg/ml), 1.434; in series [2] (31 μg/ml) it was 1.132; in series [2] (62.5 μg/ml), 0.317; in series [2] (125 μg/ml) it was 0.305. In addition, the “OD (absorbance at 540 nm)” value turned out to be 0.165 in series [2] (250 μg/ml), 0.098 in series [2] (500 μg/ml) and 0.109 in series [2] (1000 μg/ml).

Take `O=S1(=O)CCNCN1` [Taurultam, taurultam]: the EC50 cytotoxicity in series [4] was 19.3 µg/mL (≈ 142 µM); in series [5], 10 µg/mL (≈ 73.4 µM); in series [6], around 50 µg/mL (≈ 367 µM). Also, the “sensitivity of CSCs relative to corresponding glioma bulk cells, based on EC50” value in series [5] was around 2 fold.

Consider `Cn1nnc2c(C(N)=O)ncn2c1=O` [Temozolamide, temozolamide], for which the peak plasma levels in series [7] was 13.7 µg/mL. In series [8], the “Cytotoxicity EC50 24 h, Mean ± SD” value worked out at 68.5 ± 26 µg/mL.

The values are drawn from patent US9241943B2, “Oxathiazine derivatives as antibacterial and anticancer agents” (GEISTLICH PHARMA AG, priority 2012, dated 2016).
